Source: PMC6151407 (Molecules : A Journal of Synthetic Chemistry and Natural …, 2017)
In brackets after ≈: the same amount, converted by molar mass. Read-outs that look alike come from different tables or passages of the source.

Columns and labels:
[1] = target: T1, electric eel AChE (EC3.1.1.7) (Electrophorus electricus, UniProt O42275); assay: biochemical
T1 construct: purchased Sigma-Aldrich Chemical Company (St. Louis, MO, USA)
Description: (§1) n-Hexane (Hx), ethyl acetate (EA), n-butanol (BuOH), methanol (MeOH), ethanol (EtOH), and distilled water were used for extraction, fractionation, and open column chromatography. Open column chromatography used Sephadex LH-20 (25–100 μm; Pharmacia, Stockholm, Sweden), MCI CHP 20P (Supelco, St. Louis, MO, USA), and ODS gel (400–500 mesh; Waters, Milford, MA, USA). Dimethyl sulfoxide-d6 (DMSO-d6) and chloroform-d (CDCl3) were used for the NMR solution. MS was performed with ultra-high performance liquid chromatography and high-resolution mass spectrometry (UHPLC-HRMS) coupled with electrospray ionization hybrid linear trap-quadruple-Orbitrap MS (ESI/LTQ-Orbitrap) on an Ultimate 3000 rapid separation liquid chromatography (RSLC) system (Thermo, Darmstadt, Germany). ^1H- and ^13C-nuclear magnetic resonance (NMR) spectra were collected at 600 and 150 MHz, respectively, with a JEOL spectrometer. Chemical shifts are expressed as parts per million (ppm) on the δ scale, and coupling constants (J) are shown in Hertz. HPLC was conducted with Empower Pro 2.0 software (Waters, Milford, MA, USA), and determination was performed with a Waters 2695 system pump and Waters 996 Photodiode array detector (Waters, Milford, MA, USA). The separation column was a Waters Sunfire™ C18 column (4.6 × 250 mm, 5 μm). HPLC-grade solvents, such as acetonitrile (ACN), methanol (MeOH), and distilled water (H2O), were purchased from J. T. Baker® (Phillipsburg, PA, USA). HPLC-grade phosphoric acid and dimethyl sulfoxide (DMSO) were obtained from DEAJUNG Chemical (Siheung, Gyeonggi, Korea). Reagents and solvents including electric eel AChE (EC3.1.1.7), horse serum BChE (EC3.1.1.8), acetylthiocholine iodide (ACh), butyrylthiocholine chloride (BCh), 5,5′-dithiobis [2-nitrobenzoic acid] (DTNB), berberine, bovine serum albumin, aminoguanidine (AG), glucose, and fructose were purchased from Sigma-Aldrich Chemical Company (St. Louis, MO, USA). The BACE1 FRET assay kit (β-secretase) was purchased from PanVera Co. (Madison, WI, USA).
(§2) ChE activity was detected by AChE- or BChE-mediated hydrolysis of […] for 15 min to form thiocholine and the yellow 5-thio-2-nitrobenzoate anion. The result was quantified by measuring the absorbance 412 nm. The assay mixture contained 0.1 M potassium phosphate buffer (pH 7.8), 0.3 U/mL AChE or BChE, 0.5 mM DTNB, 0.6 mM ACh or BCh, and the sample for a total volume of 0.2 mL. All tested samples were dissolved in 10% DMSO at five different final concentrations (10–500 µg/mL for extracts and fractions or 10–500 µM for isolated constituents). The reaction was performed in a 96-well plate. […] Inhibitory activity was calculated with the following formula: (Ac − As/Ac) × 100, where Ac is the change in absorbance for the control after 15 min and As is the change in absorbance for the sample after 15 min.

[2] = target: T2, horse serum BChE (EC3.1.1.8) (Equus caballus, UniProt P81908); assay: biochemical
T2 construct: horse serum BChE (EC3.1.1.8); purchased Sigma-Aldrich Chemical Company (St. Louis, MO, USA); host or cells: horse serum
Description: as §1, with “(DTNB), berberine, bovine serum albumin, aminoguanidine (AG), glucose, and fructose were purchased from Sigma-Aldrich Chemical Company (St. Louis, MO, USA).” left out
as §2

[3] = target: BACE1 (Homo sapiens, UniProt P56817); assay: BACE1 FRET assay kit (β-secretase) inhibition; format: biochemical; conditions: isolated compounds; 60 min, room temperature, pH 4.5; mean ± S.D. (n = 3)
Description: as §1, with “(DTNB), berberine, bovine serum albumin, aminoguanidine (AG), glucose, and fructose were purchased from Sigma-Aldrich Chemical Company (St. Louis, MO, USA).” left out
BACE1 inhibition was measured with a commercially available spectrophotometric method according to the manufacturer’s recommended protocol. The assay mixture contained 50 mM sodium acetate buffer (pH 4.5), 1.0 U/mL BACE1, substrate (750 nM Rh-[…]-Quencher in 50 mM ammonium bicarbonate), and sample. […] The reaction was incubated for 60 min at room temperature in the dark. BACE1 activity was determined by measuring the proteolysis of two fluorophores (Rh-[…]-Quencher) to form a fluorescent donor (Rh-EVNL) with an excitation of 545 nm and emission of 585 nm in a black 96-well plate. […] Inhibition was calculated with the following formula: (Ac − As/Ac) × 100, where Ac is the change in fluorescence for the control after 60 min, and As is the change in fluorescence for the sample after 60 min.

[4] = test system: AGE formation; assay: Inhibition of AGE formation (bovine serum albumin with fructose and glucose, fluorescence); format: biochemical; conditions: 60 °C for 2 days, pH 7.4, mean ± S.D. (n = 3); for IC50: isolated compounds, read-out: IC50 AGEs Formation
Description: Inhibition of AGE formation was measured with a spectrophotometric method developed previously. All tested samples were dissolved in 10% DMSO at five different final concentrations (10–500 µg/mL for extracts and fractions or 10–500 µM for isolated constituents). The assay mixture contained bovine serum albumin (10 mg/mL), 50 mM phosphate buffer (pH 7.4) with 0.02% sodium azide, and 0.4 M fructose and glucose. The reaction was incubated at 60 °C for 2 days. After incubating, fluorescence was measured at an excitation wavelength of 350 nm and emission of 450 nm in a black 96-well plate. Aminoguanidine (AG), a typical inhibitor of AGE formation, was used as a positive control. The inhibitory activity was calculated with the following formula: (Ac − As/Ac) × 100, where Ac is the fluorescence of the control, and As is the fluorescence of the sample.

[5] = isolated compounds, 15 min, pH 7.8, mean ± S.D. (n = 3), read-out: IC50 AChE (converted)
[6] = isolated compounds, 15 min, pH 7.8, mean ± S.D. (n = 3), read-out: IC50 BChE

Sequence of BACE1 (P56817 46-501): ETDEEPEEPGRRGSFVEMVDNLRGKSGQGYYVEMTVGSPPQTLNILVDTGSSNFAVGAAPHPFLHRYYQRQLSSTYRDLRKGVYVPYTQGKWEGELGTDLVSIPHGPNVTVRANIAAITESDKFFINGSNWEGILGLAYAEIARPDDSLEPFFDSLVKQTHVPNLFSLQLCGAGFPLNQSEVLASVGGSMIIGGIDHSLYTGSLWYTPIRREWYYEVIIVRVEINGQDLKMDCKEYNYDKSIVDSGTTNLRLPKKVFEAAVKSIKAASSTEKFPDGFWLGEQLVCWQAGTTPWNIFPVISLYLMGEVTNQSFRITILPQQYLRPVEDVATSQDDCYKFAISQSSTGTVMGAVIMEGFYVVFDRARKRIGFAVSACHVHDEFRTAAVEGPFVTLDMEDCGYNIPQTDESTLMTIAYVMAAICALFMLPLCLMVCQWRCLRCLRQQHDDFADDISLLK
T2 sequence (P81908 whole entry): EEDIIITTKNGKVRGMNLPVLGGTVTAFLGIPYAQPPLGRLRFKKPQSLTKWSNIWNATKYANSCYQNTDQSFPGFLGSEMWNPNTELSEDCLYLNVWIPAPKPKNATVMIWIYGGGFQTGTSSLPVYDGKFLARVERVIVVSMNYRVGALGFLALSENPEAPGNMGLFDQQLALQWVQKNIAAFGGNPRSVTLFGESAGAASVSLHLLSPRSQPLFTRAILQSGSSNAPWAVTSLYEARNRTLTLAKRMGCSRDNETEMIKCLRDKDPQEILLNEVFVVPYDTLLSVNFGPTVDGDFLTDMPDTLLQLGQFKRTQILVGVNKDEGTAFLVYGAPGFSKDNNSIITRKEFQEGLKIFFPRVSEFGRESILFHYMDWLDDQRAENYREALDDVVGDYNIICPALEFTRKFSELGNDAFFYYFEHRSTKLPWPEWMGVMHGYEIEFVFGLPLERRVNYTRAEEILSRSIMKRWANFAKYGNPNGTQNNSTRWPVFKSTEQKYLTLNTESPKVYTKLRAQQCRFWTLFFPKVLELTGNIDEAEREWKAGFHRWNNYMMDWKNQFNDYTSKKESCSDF
T1 sequence (O42275 24-633): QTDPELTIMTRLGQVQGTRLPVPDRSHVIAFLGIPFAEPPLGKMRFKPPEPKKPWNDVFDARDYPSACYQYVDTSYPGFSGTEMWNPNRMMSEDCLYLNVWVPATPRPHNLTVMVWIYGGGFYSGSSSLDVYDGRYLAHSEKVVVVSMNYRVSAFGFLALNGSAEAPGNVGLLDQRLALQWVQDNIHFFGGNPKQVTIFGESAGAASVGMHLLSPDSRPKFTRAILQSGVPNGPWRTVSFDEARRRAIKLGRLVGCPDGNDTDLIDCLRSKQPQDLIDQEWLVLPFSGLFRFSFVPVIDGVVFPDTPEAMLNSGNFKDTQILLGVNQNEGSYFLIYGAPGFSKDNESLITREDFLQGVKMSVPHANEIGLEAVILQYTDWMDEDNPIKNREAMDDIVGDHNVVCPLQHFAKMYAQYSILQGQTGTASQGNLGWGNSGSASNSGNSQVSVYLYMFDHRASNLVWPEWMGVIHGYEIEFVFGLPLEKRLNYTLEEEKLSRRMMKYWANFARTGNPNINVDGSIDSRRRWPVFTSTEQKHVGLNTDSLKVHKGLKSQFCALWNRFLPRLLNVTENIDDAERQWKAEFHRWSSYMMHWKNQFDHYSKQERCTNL

Row | SMILES | IC50 [1, 5] [µM] | IC50 [2, 6] [µM] | IC50 [3] [µM] | IC50 [4] [µM] | IC50 AGE Formation ([4]; extracts and fractions) [µg/mL] | IC50 ([1]; extracts and fractions, 15 min, pH 7.8, mean ± S.D. (n = 3), read-out: IC50 AChE (converted)) [µM] | IC50 ([1]; IC50 AChE) [µM] | IC50 ([2]; IC50 BChE) [µM]
1 | Cc1c(O)cc2c(c1O)C(=O)c1ccccc1C2=O [Compound 8, rubiadin] | 44.3 ± 12.2 | > 500 | 19.8 ± 3.05 | 522 ± 10.1 |  |  |  | 
2 | N=C(N)NN [AG, aminoguanidine, reference compound] |  |  |  | 762 ± 69.1 | 104.87 ± 6.94 (≈ 1420 µM) |  |  | 
3 | COc1c(O)cc2c(c1OC)C(=O)c1ccccc1C2=O [Compound 2, 1,2-dimethoxy-3-hydroxy anthraquinone] | 147 ± 13.3 | 442 ± 10.6 | 115 ± 21.6 | 438 ± 23.9 |  |  |  | 
4 | COc1c(O)ccc2c1C(=O)c1ccccc1C2=O [Compound 1, alizarin-1-methyl ether] | 175 ± 10.7 | 450 ± 8.82 | 192 ± 7.32 | 292.4 ± 2.28 |  |  |  | 
5 | COc1cc2c(cc1CO)C(=O)c1ccccc1C2=O [Compound 4, 2-hydroxymethyl-3-methoxy anthraquinone] | 27 ± 1.49 | > 500 | > 200 | 530 ± 15.5 |  |  |  | 
6 | O=C1c2ccccc2C(=O)c2c(O)cc(CO)cc21 [Compound 7, 1-hydroxy-3-hydroxymethyl anthraquinone] | 96.4 ± 17.2 | > 500 |  |  |  |  |  | 
7 | O=C1c2ccccc2C(=O)c2cc(CO)c(O)cc21 [Compound 5, 2-hydroxymethyl-3-hydroxy anthraquinone] | 19.1 ± 3.58 | 459 ± 13.1 | > 200 | 355 ± 12 |  |  |  | 
8 | COc1ccc2cc3[n+](cc2c1OC)CCc1cc2c(cc1-3)OCO2 [Berberine, berberine, reference compound] | 0.42 ± 0.03 |  |  |  |  | 0.416 |  | 
9 | COc1ccc2c(c1)C(=O)c1ccccc1C2=O [Compound 3, 2-methoxy anthraquinone] | 187 ± 20.1 | 230 ± 5.97 | 9.29 ± 1.92 | 88.4 ± 3.28 |  |  |  | 
10 | COc1c(C)c(O)cc2c1C(=O)c1ccccc1C2=O [Compound 6, rubiadin-1-methyl ether] | 87.2 ± 6.56 | > 500 | 25.9 ± 2.11 | > 1000 |  |  |  | 
11 | COc1cc2ccc(=O)oc2cc1O [Compound 9, scopoletin] | 236 ± 21.2 | 50.4 ± 1.61 | > 200 | 5.43 ± 0.11 |  |  |  | 
12 | CC[C@H](CC[C@@H](C)[C@H]1CC[C@H]2[C@@H]3CC=C4C[C@@H](O)CC[C@]4(C)[C@H]3CC[C@]12C)C(C)C [Compound 10, β-sitosterol] |  |  |  |  |  |  | > 500 | > 500
